The subject of data set [1] is chronic ocular hypertension. The experiment in a line: Effects on chronic ocular hypertension of rabbits (dexamethasone model). The format is in vivo. To be noted: within 24 hours, puerarin hydrate 1% (W/V), betaxolol 0.5% (W/V). As for the experimental part:
Chronic Ocular Hypertension Models: 32 rabbits, half male and half female, were subjected to sub-conjunctive injection with 0.5 mg of dexamethasone under corneal limbus, once every other day, for consecutive 3 weeks, to obtain chronic ocular hypertension models, then randomly divided into physiological saline group, betaxolol group [0.5% (W/V)], puerarin hydrate group [1% (W/V)]. The maximum decrease of intraocular pressure was measured within 24 hours.

The nature of data set [2]: Hygroscopicity test according to the Pharmacopoeia of the People's Republic of China. Type of data set: physicochemical. To be noted: 25° C., relative humidity 75%, 48 h. As for the experimental part:
(§1) The sample of the puerarin hydrate above (prepared by method of Example 1) and anhydrous puerarin (anhydrous puerarin was prepared by: drying the hydrate as prepared in Example 1 at 90-105° C. in the presence of phosphorus pentoxide under vacuum for 24-72 hours or more to obtain an anhydrous puerarin, and the water content of anhydrous puerarin was usually lower than 1.0% as measured by Karl Fisher method) were sealed in penicillin bottles to perform accelerated stability test (chromatography conditions: chromatography column: C18 (150 mm×4.6 mm, 5 μm); mobile phase: 0.1% citric acid solution-methanol (75:25); flow rate: 1 ml/min; temperature: room temperature; detection wavelength: 250 nm). […] Hygroscopicity test was performed according to the Pharmacopoeia of the People's Republic of China: about 5 g of anhydrous puerarin and the crystalline hydrate of the present invention were taken, placed in dry watch glasses with constant weight, weighed precisely. Samples were taken separately at 0 h and 48 h of the test at 25° C. and relative humidity of 75%, and hygroscopicity weight gain percentages were calculated.

Data set [3] can be described thus: Accelerated stability test (40° C., RH75%), sealed in penicillin bottles. Type of data set: physicochemical. As to conditions: for Marked content (%) / Property / Related substance (%): accelerated, 40° C. How it is done:
as §1

Data set [4] can be described thus: Sticking in direct tableting of powder. The format is physicochemical. To be noted: tableting 200 mg of powder; printed '1-3 times or higher'. How it is done: In addition, the puerarin hydrate of the present invention overcomes the drawback of deliquescent property of anhydrous puerarin, so that it is not necessary to isolate air to prevent adhesion, and has good sliding property, and the manipuility for manufacturing preparations is improved. Anhydrous puerarin has sticking phenomenon when its powder is used for direct tableting. When tableting 200 mg of powder, anhydrous puerarin has a sticking amount 1-3 times or higher than that of puerarin monohydrate.

In data set [5] the target is T1, ACE (Rattus norvegicus, UniProt P47820).
T1 construct: from tissue; host or cells: blood serum of Wistar rats
T1 sequence (P47820 36-1313): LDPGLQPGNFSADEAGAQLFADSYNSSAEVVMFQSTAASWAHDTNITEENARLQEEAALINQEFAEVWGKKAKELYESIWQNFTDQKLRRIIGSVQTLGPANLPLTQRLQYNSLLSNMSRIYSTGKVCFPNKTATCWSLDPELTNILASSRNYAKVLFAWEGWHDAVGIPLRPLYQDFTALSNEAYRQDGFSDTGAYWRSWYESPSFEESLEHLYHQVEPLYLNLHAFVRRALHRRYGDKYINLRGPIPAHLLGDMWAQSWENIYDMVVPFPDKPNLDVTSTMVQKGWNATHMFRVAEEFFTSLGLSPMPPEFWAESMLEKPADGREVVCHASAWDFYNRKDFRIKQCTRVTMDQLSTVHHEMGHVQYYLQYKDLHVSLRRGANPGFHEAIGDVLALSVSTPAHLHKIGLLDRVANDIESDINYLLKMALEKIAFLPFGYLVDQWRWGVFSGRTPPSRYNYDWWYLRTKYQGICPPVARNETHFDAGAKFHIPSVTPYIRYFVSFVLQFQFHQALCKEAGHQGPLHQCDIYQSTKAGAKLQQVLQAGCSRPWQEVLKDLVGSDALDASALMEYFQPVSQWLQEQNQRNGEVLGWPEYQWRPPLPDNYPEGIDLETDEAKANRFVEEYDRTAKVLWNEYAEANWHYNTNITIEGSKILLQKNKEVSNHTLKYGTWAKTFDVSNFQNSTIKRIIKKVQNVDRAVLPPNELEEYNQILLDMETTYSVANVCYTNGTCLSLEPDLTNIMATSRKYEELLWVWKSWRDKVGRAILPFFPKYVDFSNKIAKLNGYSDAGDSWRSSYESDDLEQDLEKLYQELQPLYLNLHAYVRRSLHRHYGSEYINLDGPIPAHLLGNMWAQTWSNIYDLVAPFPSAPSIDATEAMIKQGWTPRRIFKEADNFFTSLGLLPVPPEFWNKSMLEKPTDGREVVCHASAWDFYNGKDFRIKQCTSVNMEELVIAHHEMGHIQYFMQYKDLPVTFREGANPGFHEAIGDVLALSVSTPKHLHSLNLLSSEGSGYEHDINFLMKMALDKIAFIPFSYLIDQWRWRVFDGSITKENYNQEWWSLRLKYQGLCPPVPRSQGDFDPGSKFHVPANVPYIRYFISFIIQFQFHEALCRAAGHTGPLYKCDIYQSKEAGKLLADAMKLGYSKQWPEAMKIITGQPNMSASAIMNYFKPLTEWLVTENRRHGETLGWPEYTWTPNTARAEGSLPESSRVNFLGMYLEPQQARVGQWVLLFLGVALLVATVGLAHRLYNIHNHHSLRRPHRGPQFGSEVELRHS
Kind of data set: Effects on inhibiting ACE activity (rat blood serum after intraperitoneal injection). The format is in vivo, Wistar rats. As to conditions: rats, 200 mg/kg intraperitoneal. As for the experimental part:
24 Wistar rats, 280-300 g, were randomly divided into 3 groups, 8 rats per group, one group was control group, other two groups were separately 100 mg/kg, 200 mg/kg dose groups (which was added with cosolvent to form an injectable solution), subjected to intraperitoneal injection, the control group was administered with physiological saline. 60 min after administration, the rats were anesthetized with 1% pentobarbital sodium, subjected to thoracotomy and blood sample was taken from heart, the blood sample stood at room temperature for 30 min, centrifuged under 3500 r/min at low temperature for 10 min, the supernatant was taken and stored at about −65° C., for test. Measurement of ACE activity: referring to document [WANG, Fumin, et al, Chinese Journal of Laboratory Medicine, 1983, 6(3):145-151], the results were subjected to statistical treatment: the results were expressed in x±S, and data were subjected to analysis of variance and t-test.

For data set [6], the system named is sudden deafness. As to conditions: injection, within 2 weeks after administration; cited from earlier work.
The test system of data set [7] is blood pressure. As to conditions: anesthetized dogs, injection; cited from earlier work.
The test system of data set [8] is β receptor. As to conditions: cited from earlier work.
Data set [9] concerns benzodiazepine receptor. To be noted: cited from earlier work.
In data set [10] the test system is intraocular pressure. As to conditions: ocular hypertension rabbit models induced by dexamethasone; cited from earlier work.
Data set [11] deals with ethanol intake. As to conditions: rats, intraperitoneal injection; cited from earlier work.
The target of data set [12] is T2, β2 receptor (Cavia porcellus, UniProt Q8K4Z4).
T2 construct: trachea strip β2 receptor of guinea pigs; from tissue; host or cells: guinea pig trachea strip
T2 sequence (Q8K4Z4 whole entry): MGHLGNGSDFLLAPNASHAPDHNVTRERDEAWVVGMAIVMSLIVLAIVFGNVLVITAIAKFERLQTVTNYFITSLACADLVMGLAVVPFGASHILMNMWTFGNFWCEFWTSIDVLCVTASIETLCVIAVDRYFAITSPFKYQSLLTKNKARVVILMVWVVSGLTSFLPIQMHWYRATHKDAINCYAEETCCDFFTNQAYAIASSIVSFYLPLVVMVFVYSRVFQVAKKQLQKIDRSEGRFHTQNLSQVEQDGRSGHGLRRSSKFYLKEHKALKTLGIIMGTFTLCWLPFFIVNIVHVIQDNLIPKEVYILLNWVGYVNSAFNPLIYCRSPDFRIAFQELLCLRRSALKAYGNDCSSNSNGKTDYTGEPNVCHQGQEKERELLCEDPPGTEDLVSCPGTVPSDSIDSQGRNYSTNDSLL
As to conditions: trachea strip of guinea pigs; cited from earlier work.

The target in data set [13] is T3, β1 receptor (Cavia porcellus, UniProt H0W3H1).
T3 construct: ex vivo atrial muscle β1 receptor of guinea pigs; from tissue; host or cells: guinea pig atrial muscle, ex vivo
T3 sequence (H0W3H1 1-470): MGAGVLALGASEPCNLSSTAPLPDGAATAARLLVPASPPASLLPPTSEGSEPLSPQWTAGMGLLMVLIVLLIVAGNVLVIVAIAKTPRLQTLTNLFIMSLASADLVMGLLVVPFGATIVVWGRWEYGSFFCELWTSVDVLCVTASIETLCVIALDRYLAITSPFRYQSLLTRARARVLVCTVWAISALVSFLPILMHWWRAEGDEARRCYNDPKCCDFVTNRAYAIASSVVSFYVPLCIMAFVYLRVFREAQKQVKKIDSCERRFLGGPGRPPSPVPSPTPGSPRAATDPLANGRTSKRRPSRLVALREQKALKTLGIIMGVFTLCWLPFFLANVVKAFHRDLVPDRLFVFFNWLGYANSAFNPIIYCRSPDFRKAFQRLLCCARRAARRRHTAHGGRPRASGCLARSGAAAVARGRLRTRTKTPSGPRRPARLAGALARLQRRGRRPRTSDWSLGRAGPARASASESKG
As to conditions: ex vivo atrial muscle of guinea pigs; cited from earlier work.

For data set [14], the system named is blood pressure and heart rate. To be noted: conscious spontaneously hypertensive rats, intraperitoneal injection; cited from earlier work.

As to `CC(C)NCC(O)COc1ccc(CCOCC2CC2)cc1` (stereo not shown) [Betaxolol, reference compound], the “Maximum decrease of intraocular pressure (mmHg)” value (“Maximum decrease” below) in data set [1] is 1.9 mmHg.
In the case of `O=c1c(-c2ccc(O)cc2)coc2c([C@@H]3O[C@H](CO)[C@@H](O)[C@H](O)[C@H]3O)c(O)ccc12` [Sample 2, puerarin monohydrate], in data set [1] (monohydrate), the “Maximum decrease” value turned out to be 2.4 mmHg.
In the case of `O=c1c(-c2ccc(O)cc2)coc2c([C@@H]3O[C@H](CO)[C@@H](O)[C@H](O)[C@H]3O)c(O)ccc12` [Anhydrous puerarin, reference compound], in [2], the “Hygroscopicity compared with the hydrate of the present invention” value was “much higher” and the “In comparison with 0 h, weight gain, %” value is given as 4.26%. Further, the “Increase of related substance, 6 month results compared to 0 month results” value in data set [3] (accelerated test 40° C., compared with puerarin monohydrate) is “higher increase”. Also, the “Sticking amount relative to puerarin monohydrate” value in [4] is given as 1-3 times.
A word on the inhibition: it is the percentage by which the read-out fell short of the control. Regarding `O=c1c(-c2ccc(O)cc2)coc2c([C@@H]3O[C@H](CO)[C@@H](O)[C@H](O)[C@H]3O)c(O)ccc12` [Sample 3, puerarin monohydrate], the inhibition at 200 mg/kg in data set [5] (rat, ip, vs control group, read-out: inhibition rate (%)) is 51%. Besides, the “ACE (IU)” value in [5] (blood taken 60 min after administration) is 26.7 ± 6.35 IU.
Consider `O.O=c1c(-c2ccc(O)cc2)coc2c([C@@H]3O[C@H](CO)[C@@H](O)[C@H](O)[C@H]3O)c(O)ccc12.O=c1c(-c2ccc(O)cc2)coc2c([C@@H]3O[C@H](CO)[C@@H](O)[C@H](O)[C@H]3O)c(O)ccc12` [Sample 5, puerarin 0.5 hydrate], for which the “In comparison with 0 h, weight gain, %” value in data set [2] was determined as 1.51%. Further, the “Marked content (%)” value in data set [3] (sampling time 0 month) turned out to be 99.1%; in data set [3] (sampling time 1 month), 99.2%; in data set [3] (sampling time 2 month), 99.2%; in data set [3] (sampling time 3 month), 99.0%; in data set [3] (sampling time 6 month) it was 98.9%. In addition, the Property result in data set [3] (sampling time 0 month), in [3] (sampling time 1 month), in data set [3] (sampling time 2 month), in [3] (sampling time 3 month) and in data set [3] (sampling time 6 month) was “off-white powder” in each case. The “Related substance (%)” value in data set [3] (sampling time 0 month), in data set [3] (sampling time 1 month), in data set [3] (sampling time 2 month), in data set [3] (sampling time 3 month) and in data set [3] (sampling time 6 month) was below 2% in each case. For the same molecule, the “Maximum decrease” value in data set [1] amounted to 2.5 mmHg.
Consider `O=c1c(-c2ccc(O)cc2)coc2c([C@@H]3O[C@H](CO)[C@@H](O)[C@H](O)[C@H]3O)c(O)ccc12` [Puerarin, 8-β-D-glucopyranosyl-4′,7-dihydroxylisoflavone], for which the “Patients with good state of nail fold microcirculation and improved audition” value in data set [6] is 70%. In addition, in data set [7], the Blood pressure result is given as “rapid dose-dependent decrease”. Besides, in [8], the “Effect on activation function of adrenalin on adenylate cyclase” value is “completely inhibit”. Besides, the “Activity at benzodiazepine receptor” value in data set [9] is recorded as “antagonist or partial agonist”. The Intraocular pressure result in [10] was “reduce”. Also, the Ethanol intake result in [11] is “significantly reduce”. In addition, in [12], the “Action on β2 receptor” value is “relatively great concentration is required”. The “Action on β1 receptor” value in data set [13] is “significant antagonistic action”. Also, the “Blood pressure and heart rate” value in data set [14] is reported as “significantly reduce”.

Source of the values: US20130331345A1, “PUERARIN HYDRATES, PREPARATION METHODS AND USES THEREOF” (priority 2010, published 2013).
